Where two headings read alike, the source gives them in different places.
Key:
cells = test: Measurement of lactate change amount within cells; assay type: cell-based
Procedure: Cells were treated with 400 μl of 6% PCA, and then collected and extracted. Centrifugation (13,000 rpm, 10 min) was performed. A precipitate was dried using a Speed-Vac and then a weight of dried precipitate was measured. A supernatant was neutralized using 400 μl of 1 M KOH and a final volume thereof was adjusted to 1 ml using 0.33 M KH2PO4/K2HPO4, pH 7.5. Centrifugation (13,000 rpm, 10 min) was performed and the amount of lactate in a supernatant was measured (Megazyme, K-LATE).

NQO1 protein = NQO1 protein (Homo sapiens, UniProt P15559); test: NQO1 activity measurement (cytochrome C reduction); assay type: biochemical
NQO1 protein, sequence (P15559 whole entry, species assumed): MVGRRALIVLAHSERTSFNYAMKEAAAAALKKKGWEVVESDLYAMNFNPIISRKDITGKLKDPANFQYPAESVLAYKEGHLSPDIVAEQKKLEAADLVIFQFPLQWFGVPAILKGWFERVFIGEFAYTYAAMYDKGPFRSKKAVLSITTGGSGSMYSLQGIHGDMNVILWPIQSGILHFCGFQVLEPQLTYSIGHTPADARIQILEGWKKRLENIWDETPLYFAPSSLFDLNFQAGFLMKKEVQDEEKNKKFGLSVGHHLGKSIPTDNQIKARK
Procedure: An enzyme reaction solution included 25 mM Tris/HCl (pH 7.4), 0.14% bovine serum albumin, 200 μM NADH, 77 μM cytochrome C, and 5 ng of NQO1 protein. Enzymatic reaction was initiated by adding NADH and performed at 37° C. In this regard, a reaction rate was measured by observing absorbance, which was increased due to reduction of cytochrome C, at 550 nm for 10 minutes and NQO1 activity was represented as an amount of reduced cytochrome C [nmol cytochrome C reduced/min/μg protein].
Extinction coefficient for cytochrome C:21.1 mmol/L/cm=21.1 μmol/ml/cm

[1] = 5 μM, 37° C., absorbance at 550 nm for 10 minutes, 200 μM NADH, 77 μM cytochrome C, 5 ng NQO1 protein

| Compound | Lactate change amount within cells (nmol/mg cell) (cells) | NQO1 activity (5 μM, [nmol cytochrome C reduced/min/μg protein]) (NQO1 protein) | NQO1 activity (5 μM, [nmol cytochrome C reduced/min/μg protein]) (NQO1 protein; [1]) |
| --- | --- | --- | --- |
| Cc1cc(=O)n(C)c2c1-c1oc(C(C)C)nc1C(=O)C2=O [Example 7, 2-isopropyl-6,9-dimethyloxazolo[5,4-f]quinoline-4,5,7(6H)-trione] | 8.0 nmol/mg cell | 69.8 nmol cytochrome C reduced/min/μg protein | – |
| CC(C)(C)c1nc2c(o1)-c1c(O)cccc1C(=O)C2=O [Example 25, 2-tert-butyl-9-hydroxynaphtho[2,1-d]oxazole-4,5-dione] | – | – | 23.5 nmol cytochrome C reduced/min/μg protein |
| CC(=O)OCc1nc2c(o1)-c1ccccc1C(=O)C2=O [Example 50] | 8.8 nmol/mg cell | – | 244.3 nmol cytochrome C reduced/min/μg protein |
| Cc1cc(F)ccc1NCc1nc2c(o1)-c1ccccc1C(=O)C2=O [Example 49] | 6.0 nmol/mg cell | – | 229.6 nmol cytochrome C reduced/min/μg protein |
| CC(C)c1nc2c(o1)-c1c(cccc1[N+](=O)[O-])C(=O)C2=O [Example 12, 2-isopropyl-9-nitronaphtho[2,1-d]oxazole-4,5-dione] | 10.3 nmol/mg cell | – | 379.2 nmol cytochrome C reduced/min/μg protein |
| O=C1C(=O)c2nc(CNc3ccc(Cl)cc3)oc2-c2ccccc21 [Example 44] | 5.4 nmol/mg cell | 239.0 nmol cytochrome C reduced/min/μg protein | – |
| O=C1C(=O)c2nc(CNc3cccc(Cl)c3)oc2-c2ccccc21 [Example 45] | 6.7 nmol/mg cell | 229.2 nmol cytochrome C reduced/min/μg protein | – |
| COc1c([N+](=O)[O-])ccc2c1C(=O)C(=O)c1nc(C(C)(C)C)oc1-2 [Example 21, 2-tert-butyl-6-methoxy-7-nitronaphtho[2,1-d]oxazole-4,5-dione] | – | – | 40.3 nmol cytochrome C reduced/min/μg protein |
| CC(C)(C)c1nc2c(o1)-c1cccc(O)c1C(=O)C2=O [Example 17, 2-tert-butyl-6-hydroxynaphtho[2,1-d]oxazole-4,5-dione] | – | – | 7.4 nmol cytochrome C reduced/min/μg protein |
| COc1cccc2c1C(=O)C(=O)c1nc(C(C)C)oc1-2 [Example 10, 2-isopropyl-6-methoxynaphtho[2,1-d]oxazole-4,5-dione] | 11.5 nmol/mg cell | – | 20.7 nmol cytochrome C reduced/min/μg protein |
| COc1ccc([N+](=O)[O-])c2c1C(=O)C(=O)c1nc(C(C)(C)C)oc1-2 [Example 22, 2-tert-butyl-6-methoxy-9-nitronaphtho[2,1-d]oxazole-4,5-dione] | – | – | 102.5 nmol cytochrome C reduced/min/μg protein |
| CC(C)c1nc2c(o1)-c1cccnc1C(=O)C2=O [Example 20, 2-isopropyloxazolo[5,4-f]quinoline-4,5-dione] | 9.2 nmol/mg cell | – | 221.0 nmol cytochrome C reduced/min/μg protein |
| CC(C)(C)c1nc2c(o1)C(=O)C(=O)c1cc(Cl)ccc1-2 [Example 31, 2-tert-butyl-7-chloronaphtho[1,2-d]oxazole-4,5-dione] | 10.9 nmol/mg cell | – | – |
| Cc1cc(=O)[nH]c2c1-c1oc(C(C)C)nc1C(=O)C2=O [Example 14, 2-isopropyl-9-methyloxazolo[5,4-f]quinoline-4,5,7(6H)-trione] | – | 104.2 nmol cytochrome C reduced/min/μg protein | – |
| O=C1C(=O)c2nc(CNc3ccc(F)cc3)oc2-c2ccccc21 [Example 43] | 4.4 nmol/mg cell | 263.0 nmol cytochrome C reduced/min/μg protein | – |
| CC(C)c1nc2c(o1)-c1cnccc1C(=O)C2=O [Example 37, 2-isopropyloxazolo[4,5-h]isoquinoline-4,5-dione] | 10.6 nmol/mg cell | – | 845.7 nmol cytochrome C reduced/min/μg protein |
| O=C1C(=O)c2[nH]c(=O)oc2-c2ccccc21 [Example 39] | 7.8 nmol/mg cell | – | 30.1 nmol cytochrome C reduced/min/μg protein |

| Compound | Lactate change amount within cells (nmol/mg cell) (cells) | NQO1 activity (5 μM, [nmol cytochrome C reduced/min/μg protein]) (NQO1 protein) | NQO1 activity (5 μM, [nmol cytochrome C reduced/min/μg protein]) (NQO1 protein; [1]) |
| --- | --- | --- | --- |
| O=C1C(=O)c2nc(CNc3ccccc3)oc2-c2ccccc21 [Example 48] | 6.9 nmol/mg cell | 241.4 nmol cytochrome C reduced/min/μg protein | – |
| CN(Cc1nc2c(o1)-c1ccccc1C(=O)C2=O)c1ccc(F)cc1 [Example 47] | 7.6 nmol/mg cell | – | 227.5 nmol cytochrome C reduced/min/μg protein |
| COc1cccc2c1-c1oc(CN(C)C)nc1C(=O)C2=O [Example 11, 2-((dimethylamino)methyl)-9-methoxynaphtho[2,1-d]oxazole-4,5-dione] | 6.6 nmol/mg cell | – | – |
| CC(C)C(=O)Nc1ccc2c(c1)C(=O)C(=O)c1oc(C(C)(C)C)nc1-2 [Example 38, N-(2-tert-butyl-4,5-dioxo-4,5-dihydronaphtho[1,2-d]oxazol-7-yl)isobutyramide] | 4.6 nmol/mg cell | – | 63.4 nmol cytochrome C reduced/min/μg protein |
| CC(C)c1nc2c(o1)-c1c(N)cccc1C(=O)C2=O [Example 13] | – | – | 68.6 nmol cytochrome C reduced/min/μg protein |
| Cc1nc2c(o1)C(=O)C(=O)c1ncccc1-2 [Example 34] | 8.9 nmol/mg cell | – | 923.5 nmol cytochrome C reduced/min/μg protein |
| CC(C)c1nc2c(o1)C(=O)C(=O)c1ncccc1-2 [Example 33] | 10.2 nmol/mg cell | – | 458.3 nmol cytochrome C reduced/min/μg protein |
| CC(C)(C)c1nc2c(o1)-c1c(N)cccc1C(=O)C2=O [Example 19] | – | – | 0.4 nmol cytochrome C reduced/min/μg protein |
| CC(C)(C)c1nc2c(o1)C(=O)C(=O)c1cccnc1-2 [Example 40] | 8.1 nmol/mg cell | – | 527.4 nmol cytochrome C reduced/min/μg protein |
| O=C1C(=O)c2nc(-c3ccccc3)oc2-c2ccccc21 [Example 3, 2-phenylnaphtho[2,1-d]oxazole-4,5-dione] | 8.1 nmol/mg cell | – | 255.5 nmol cytochrome C reduced/min/μg protein |
| COc1cccc2c1C(=O)C(=O)c1nc(C(C)(C)C)oc1-2 [Example 16, 2-tert-butyl-6-methoxynaphtho[2,1-d]oxazole-4,5-dione] | – | – | 4.2 nmol cytochrome C reduced/min/μg protein |
| CC(C)(C)c1nc2c(o1)-c1c([N+](=O)[O-])ccc(O)c1C(=O)C2=O [Example 23, 2-tert-butyl-6-hydroxy-9-nitronaphtho[2,1-d]oxazole-4,5-dione] | – | – | 60.9 nmol cytochrome C reduced/min/μg protein |
| COc1ccc(NCc2nc3c(o2)-c2ccccc2C(=O)C3=O)cc1 [Example 46] | 7.4 nmol/mg cell | 208.0 nmol cytochrome C reduced/min/μg protein | – |
| CC(C)c1nc2c(o1)-c1cccc(O)c1C(=O)C2=O [Example 15, 6-hydroxy-2-isopropylnaphtho[2,1-d]oxazole-4,5-dione] | 4.1 nmol/mg cell | – | 20.8 nmol cytochrome C reduced/min/μg protein |
| O=C1C(=O)c2nc(CN3CCCCC3)oc2-c2ccccc21 [Example 6, 2-(piperidin-1-ylmethyl)naphtho[2,1-d]oxazole-4,5-dione] | 6.7 nmol/mg cell | – | 171.8 nmol cytochrome C reduced/min/μg protein |
| CC(C)(C)c1nc2c(o1)-c1c(cccc1[N+](=O)[O-])C(=O)C2=O [Example 18] | 13.5 nmol/mg cell | – | 382.9 nmol cytochrome C reduced/min/μg protein |

Source: patent US10927085B2, “1,2-naphthoquinone based derivative and method of preparing the same” (HUEN Co., Ltd., priority 2013, dated 2021)
